Measurements reported in patent US20260137703A1, “2-AMINO-PYRIDO[2,3-D]PYRIMIDIN-7(8H)-ONE AND 7-AMINO-1-PYRIMIDO[4,5-D]PYRIMIDIN-2(1 H)-ONE DERIVATIVES AS EGFR INHIBITORS FOR THE TREATMENT OF CANCER” (Cancer Research Technology Limited, priority 2022, published 2026).

Columns and labels:
[1] = target: T1, Phospho-EGFR (Tyr1068) in H1975 C797S cells (CRISPR-edited EGFR C797S) (Homo sapiens, UniProt P00533, C797S/L858R/T790M); assay: HTRF pEGFR/total EGFR in H1975 C797S cells; assay type: cell-based; settings: ratio pEGFR/total EGFR, compound 3 hours
T1 construct: host or cells: H1975 C797S (CRISPR-edited)
T1 sequence (P00533 25-1210 T790M/C797S/L858R): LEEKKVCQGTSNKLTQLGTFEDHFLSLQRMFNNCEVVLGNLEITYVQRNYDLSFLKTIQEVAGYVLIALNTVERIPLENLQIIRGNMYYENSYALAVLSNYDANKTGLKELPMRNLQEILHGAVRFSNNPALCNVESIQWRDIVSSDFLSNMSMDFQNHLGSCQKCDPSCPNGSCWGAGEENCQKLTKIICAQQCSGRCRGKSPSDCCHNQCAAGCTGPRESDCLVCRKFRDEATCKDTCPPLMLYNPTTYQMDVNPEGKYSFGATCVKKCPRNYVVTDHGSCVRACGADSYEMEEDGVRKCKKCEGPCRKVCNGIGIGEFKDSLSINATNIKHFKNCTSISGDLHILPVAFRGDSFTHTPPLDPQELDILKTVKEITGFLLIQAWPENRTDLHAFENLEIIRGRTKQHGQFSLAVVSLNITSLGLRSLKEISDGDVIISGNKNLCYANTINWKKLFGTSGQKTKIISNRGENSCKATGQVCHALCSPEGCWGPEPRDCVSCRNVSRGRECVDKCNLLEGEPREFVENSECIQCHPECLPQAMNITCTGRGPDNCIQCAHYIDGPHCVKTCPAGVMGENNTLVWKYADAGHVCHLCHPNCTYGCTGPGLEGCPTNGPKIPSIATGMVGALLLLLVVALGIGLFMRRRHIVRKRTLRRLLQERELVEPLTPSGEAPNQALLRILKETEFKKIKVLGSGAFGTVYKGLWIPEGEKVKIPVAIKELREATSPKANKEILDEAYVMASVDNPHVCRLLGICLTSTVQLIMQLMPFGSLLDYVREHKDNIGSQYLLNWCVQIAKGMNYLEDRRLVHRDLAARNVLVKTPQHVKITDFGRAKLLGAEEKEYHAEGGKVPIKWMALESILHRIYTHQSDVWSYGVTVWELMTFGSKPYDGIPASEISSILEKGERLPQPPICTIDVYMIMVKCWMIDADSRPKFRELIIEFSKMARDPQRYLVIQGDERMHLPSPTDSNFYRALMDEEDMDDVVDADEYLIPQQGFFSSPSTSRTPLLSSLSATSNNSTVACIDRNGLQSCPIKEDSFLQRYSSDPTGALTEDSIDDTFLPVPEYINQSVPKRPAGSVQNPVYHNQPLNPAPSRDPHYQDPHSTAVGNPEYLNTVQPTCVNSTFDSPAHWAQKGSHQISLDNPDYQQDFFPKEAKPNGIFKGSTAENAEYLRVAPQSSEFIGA
Description: […]. Once adhered (after 24 h) cells were treated with compounds dissolved in DMSO at a final concentration of 0.1% DMSO in media. Compounds were diluted in media then added to cells for 3 hours in duplicate. Compound and media were removed from the cells, then 50 ul of HTRF lysis buffer was added (lysis buffer was diluted from 4× stock to 1× in DI water, with 1% blocking agent also added). Cells were lysed on a plate shaker (2000 rpm) for 30 minutes at room temperature. pEGFR expression was monitored using the Cisbio Phospho-EGFR (Tyr1068) cellular kit (64EG1PEH). Total EGFR expression was monitored using the Cisbio Total EGFR cellular kit (64NG1PEH) as per manufacturer's instructions. Fluorescence emission was read at two different wavelengths (665 nm and 620 nm) on a PheraStar. Results were calculated as ratio of pEGFR/total EGFR and then percentage of 0 μM control.

[2] = target: T2, Phospho-EGFR (Tyr1068) in H1975 cells (Homo sapiens, UniProt P00533, L858R/T790M); assay: HTRF pEGFR/total EGFR in H1975 cells; assay type: cell-based; settings: ratio pEGFR/total EGFR, compound 3 hours
T2 construct: host or cells: H1975
T2 sequence (P00533 25-1210 T790M/L858R): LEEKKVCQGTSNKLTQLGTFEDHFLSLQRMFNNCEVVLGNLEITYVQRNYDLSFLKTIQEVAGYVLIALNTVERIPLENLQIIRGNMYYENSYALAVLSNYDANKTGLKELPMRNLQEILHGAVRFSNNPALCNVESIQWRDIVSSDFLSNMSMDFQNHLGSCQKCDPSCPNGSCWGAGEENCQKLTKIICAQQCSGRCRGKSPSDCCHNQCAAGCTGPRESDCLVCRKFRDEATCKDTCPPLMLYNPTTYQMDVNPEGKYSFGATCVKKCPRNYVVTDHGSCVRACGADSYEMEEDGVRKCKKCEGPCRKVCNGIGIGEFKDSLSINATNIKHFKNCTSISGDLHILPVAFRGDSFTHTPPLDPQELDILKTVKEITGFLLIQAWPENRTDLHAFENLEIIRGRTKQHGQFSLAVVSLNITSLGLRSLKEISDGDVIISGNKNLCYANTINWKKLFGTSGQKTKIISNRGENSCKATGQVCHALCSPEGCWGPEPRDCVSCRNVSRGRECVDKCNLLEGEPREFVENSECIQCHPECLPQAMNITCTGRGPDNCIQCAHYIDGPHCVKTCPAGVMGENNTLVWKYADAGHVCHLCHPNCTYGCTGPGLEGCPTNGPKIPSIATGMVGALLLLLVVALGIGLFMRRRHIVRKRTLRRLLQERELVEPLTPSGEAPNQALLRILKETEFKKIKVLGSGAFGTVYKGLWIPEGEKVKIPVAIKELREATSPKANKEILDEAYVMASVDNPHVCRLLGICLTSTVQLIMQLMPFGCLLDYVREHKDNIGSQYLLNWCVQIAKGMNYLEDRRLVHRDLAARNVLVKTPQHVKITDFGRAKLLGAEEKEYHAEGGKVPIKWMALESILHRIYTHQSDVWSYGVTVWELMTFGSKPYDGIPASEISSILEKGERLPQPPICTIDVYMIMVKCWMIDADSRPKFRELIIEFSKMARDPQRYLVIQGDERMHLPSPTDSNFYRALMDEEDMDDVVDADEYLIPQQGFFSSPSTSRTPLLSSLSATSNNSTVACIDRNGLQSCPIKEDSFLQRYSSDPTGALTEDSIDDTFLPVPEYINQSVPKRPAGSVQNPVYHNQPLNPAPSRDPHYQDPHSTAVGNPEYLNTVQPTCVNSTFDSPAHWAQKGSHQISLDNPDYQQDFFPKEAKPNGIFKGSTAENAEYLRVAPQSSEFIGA
Description: H1975 cells (ATCC CRL-5908) were plated at 20,000 cells per well in 96 well plates and placed at 37° C. 5% CO2. Once adhered (after 24 h) cells were treated with compounds dissolved in DMSO at a final concentration of 0.1% DMSO in media. Compounds were diluted in media then added to cells for 3 hours in duplicate. Compound and media were removed from the cells, then 50 ul of HTRF lysis buffer is added (lysis buffer was diluted from 4× stock to 1× in DI water, with 1% blocking agent also added). Cells were lysed on a plate shaker (2000 rpm) for 30 minutes at room temperature. pEGFR expression was monitored using the Cisbio Phospho-EGFR (Tyri068) cellular kit (64EG1PEH). Total EGFR expression was monitored using the Cisbio Total EGFR cellular kit (64NG1PEH) as per manufacturer's instructions. Fluorescence emission was read at two different wavelengths (665 nm and 620 nm) on a PheraStar. Results were calculated as ratio of pEGFR/total EGFR and then percentage of 0 μM control.

[3] = target: CtermHisTag-mEGFR Wild type (Homo sapiens, UniProt P00533); assay: biochemical
Chain of CtermHisTag-mEGFR Wild type (P00533 whole entry): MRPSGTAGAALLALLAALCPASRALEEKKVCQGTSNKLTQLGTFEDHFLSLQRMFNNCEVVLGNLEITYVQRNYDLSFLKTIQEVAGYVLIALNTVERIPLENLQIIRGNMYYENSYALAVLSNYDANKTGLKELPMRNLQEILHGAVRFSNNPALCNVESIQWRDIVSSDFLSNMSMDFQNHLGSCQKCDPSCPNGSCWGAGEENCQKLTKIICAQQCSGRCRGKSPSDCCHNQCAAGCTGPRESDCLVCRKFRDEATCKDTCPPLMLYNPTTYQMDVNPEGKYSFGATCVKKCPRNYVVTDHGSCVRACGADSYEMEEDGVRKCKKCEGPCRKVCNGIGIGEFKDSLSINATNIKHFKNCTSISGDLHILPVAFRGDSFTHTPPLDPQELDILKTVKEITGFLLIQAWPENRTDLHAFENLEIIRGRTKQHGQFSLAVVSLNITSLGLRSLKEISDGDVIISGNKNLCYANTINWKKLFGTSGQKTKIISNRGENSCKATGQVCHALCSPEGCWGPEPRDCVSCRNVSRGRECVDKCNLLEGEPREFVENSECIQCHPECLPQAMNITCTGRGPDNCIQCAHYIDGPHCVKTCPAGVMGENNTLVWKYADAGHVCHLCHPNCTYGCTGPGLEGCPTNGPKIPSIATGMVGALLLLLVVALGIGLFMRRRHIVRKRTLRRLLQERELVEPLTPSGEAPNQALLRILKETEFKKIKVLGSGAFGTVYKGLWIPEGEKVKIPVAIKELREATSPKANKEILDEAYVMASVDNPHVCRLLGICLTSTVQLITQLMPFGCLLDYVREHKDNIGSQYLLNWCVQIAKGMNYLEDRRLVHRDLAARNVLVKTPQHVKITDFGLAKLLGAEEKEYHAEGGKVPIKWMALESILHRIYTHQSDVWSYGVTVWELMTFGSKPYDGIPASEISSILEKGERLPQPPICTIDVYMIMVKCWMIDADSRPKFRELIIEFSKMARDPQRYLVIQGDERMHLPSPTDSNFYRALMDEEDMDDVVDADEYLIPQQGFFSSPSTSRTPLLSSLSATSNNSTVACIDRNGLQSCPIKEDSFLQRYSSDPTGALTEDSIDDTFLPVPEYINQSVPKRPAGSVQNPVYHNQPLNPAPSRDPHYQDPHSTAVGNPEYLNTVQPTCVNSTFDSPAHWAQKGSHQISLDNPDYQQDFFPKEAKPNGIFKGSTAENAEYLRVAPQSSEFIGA

[4] = target: T3, Phospho-EGFR (Tyr1068) in A431 cells (Homo sapiens, UniProt P00533); assay: HTRF pEGFR/total EGFR in A431 cells with EGF stimulation; assay type: cell-based; settings: ratio pEGFR/total EGFR, compound 2.5 hours then 100 ng/ml EGF 30 mins
T3 construct: endogenous in cells; host or cells: A431
T3 sequence (P00533 25-1210): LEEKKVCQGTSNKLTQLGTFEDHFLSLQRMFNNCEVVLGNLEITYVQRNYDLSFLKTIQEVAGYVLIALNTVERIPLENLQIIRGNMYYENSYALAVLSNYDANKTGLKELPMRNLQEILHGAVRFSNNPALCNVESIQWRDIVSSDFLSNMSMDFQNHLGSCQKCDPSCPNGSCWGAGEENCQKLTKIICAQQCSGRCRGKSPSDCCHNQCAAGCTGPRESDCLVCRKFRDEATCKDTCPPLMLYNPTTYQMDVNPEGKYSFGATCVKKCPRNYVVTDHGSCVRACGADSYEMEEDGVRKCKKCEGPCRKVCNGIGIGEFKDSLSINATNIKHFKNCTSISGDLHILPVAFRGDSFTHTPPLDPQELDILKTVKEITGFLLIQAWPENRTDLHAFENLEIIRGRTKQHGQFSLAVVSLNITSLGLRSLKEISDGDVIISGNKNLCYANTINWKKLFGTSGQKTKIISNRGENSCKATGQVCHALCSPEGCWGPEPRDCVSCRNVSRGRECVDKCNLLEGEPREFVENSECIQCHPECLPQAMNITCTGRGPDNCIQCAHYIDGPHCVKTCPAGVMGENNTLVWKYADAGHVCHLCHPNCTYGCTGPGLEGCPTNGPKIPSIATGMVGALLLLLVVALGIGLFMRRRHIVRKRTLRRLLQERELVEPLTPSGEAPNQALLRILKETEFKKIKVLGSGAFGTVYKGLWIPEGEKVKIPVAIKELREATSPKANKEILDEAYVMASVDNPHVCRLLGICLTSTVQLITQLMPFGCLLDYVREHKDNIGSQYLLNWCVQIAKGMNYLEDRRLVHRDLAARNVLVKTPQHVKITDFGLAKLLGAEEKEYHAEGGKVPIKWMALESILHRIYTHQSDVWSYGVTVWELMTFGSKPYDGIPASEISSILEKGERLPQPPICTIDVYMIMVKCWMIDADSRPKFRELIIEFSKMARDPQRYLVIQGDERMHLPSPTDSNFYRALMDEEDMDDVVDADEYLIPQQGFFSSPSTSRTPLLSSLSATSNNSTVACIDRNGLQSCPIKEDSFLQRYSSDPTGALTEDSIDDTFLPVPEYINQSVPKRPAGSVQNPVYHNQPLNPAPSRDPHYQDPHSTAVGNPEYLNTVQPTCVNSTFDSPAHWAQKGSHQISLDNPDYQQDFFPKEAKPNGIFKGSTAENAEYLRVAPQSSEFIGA
Description: Cells were plated at 20,000 cells per well in 96 well plates and placed at 37° C. 5% CO2. Once adhered (after 24 h) cells were treated with compounds dissolved in DMSO at a final concentration of 0.1% DMSO in media. Compounds were diluted in media then added to cells for 2.5 hours in duplicate, 100 ng/ml EGF (ThermoFisher, PHG0311) was added to all compound treated cells as well as a control for 30 mins. Compound and media were removed from the cells, then 50 ul of HTRF lysis buffer was added (lysis buffer was diluted from 4× stock to 1× in DI water, with 1% blocking agent also added). Cells were lysed on a plate shaker (2000 rpm) for 30 minutes at room temperature. pEGFR expression was monitored using the Cisbio Phospho-EGFR (Tyr1068) cellular kit (64EG1PEH). Total EGFR expression was monitored using the Cisbio Total EGFR cellular kit (64NG1PEH) as per manufacturer's instructions. Fluorescence emission was read at two different wavelengths (665 nm and 620 nm) on a PheraStar. Results were calculated as ratio of pEGFR/total EGFR and then percentage of 0 μM control.

Row | SMILES | IC50 [1] [µM] | IC50 [2] [µM] | IC50 [3] [µM] | IC50 [4] [µM]
1 | C#Cc1cc(=O)n(-c2ccccc2)c2nc(Nc3ccc(N4CCC(N5CC(N(C)C)C5)CC4)cc3)ncc12 [Example 29, 2-[(4-{4-[3-(Dimethylamino)azetidin-1-yl]piperidin-1-yl}phenyl)amino]-5-ethynyl-8-phenylpyrido[2,3-d]pyrimidin-7-one] | < 0.5 | < 0.5 | < 1 | > 3
2 | C#Cc1cc(=O)n(-c2ccccc2)c2nc(Nc3ccc(N(C)CCN(C)C)cc3)ncc12 [Example 34, 2-((4-((2-(Dimethylamino)ethyl)(methyl)amino)phenyl)amino)-5-ethynyl-8-phenylpyrido[2,3-d]pyrimidin-7(8H)-one] | > 3 | < 0.5 | < 1 | > 3
3 | C#Cc1cc(=O)n(-c2ccccc2)c2nc(Nc3ccc(N(C)C(=O)CCOC)cc3OC)ncc12 [Example 36, N-(4-((5-Ethynyl-7-oxo-8-phenyl-7,8-dihydropyrido[2,3-d]pyrimidin-2-yl)amino)-3-methoxyphenyl)-3-methoxy-N-methylpropanamide] | 1 to 3 | 1 to 3 | 1 to 10 | > 3
4 | C#Cc1cc(=O)n(-c2ccccc2)c2nc(Nc3ccc(N4CCC(N5CC(COC)C5)CC4)cc3)ncc12 [Example 39, 5-Ethynyl-2-[(4-{4-[3-(methoxymethyl)azetidin-1-yl]piperidin-1-yl}phenyl)amino]-8-phenylpyrido[2,3-d]pyrimidin-7-one] | < 0.5 | < 0.5 | < 1 | 1 to 3
5 | C#Cc1cc(=O)n(-c2ccccc2)c2nc(Nc3ccc(N4CCC(N5CC(C(C)(C)O)C5)CC4)cc3)ncc12 [Example 40, 5-Ethynyl-2-[(4-{4-[3-(2-hydroxypropan-2-yl)azetidin-1-yl]piperidin-1-yl}phenyl)amino]-8-phenylpyrido[2,3-d]pyrimidin-7-one] | < 0.5 | < 0.5 | < 1 | 1 to 3
6 | C#Cc1cc(=O)n(C)c2nc(Nc3ccc(N(C)CCN(C)C)cc3)ncc12 [Example 43, 2-[(4-{[2-(Dimethylamino)ethyl](methyl)amino}phenyl)amino]-5-ethynyl-8-methylpyrido[2,3-d]pyrimidin-7-one] | < 0.5 | < 0.5 | 1 to 10 | > 3
7 | C#Cc1cc(=O)n(C)c2nc(Nc3cc(-c4cnn(C)c4)c(N4CCOCC4)cc3OC)ncc12 [Example 44, 5-Ethynyl-2-{[2-methoxy-5-(1-methylpyrazol-4-yl)-4-(morpholin-4-yl)phenyl]amino}-8-methylpyrido[2,3-d]pyrimidin-7-one] | 1 to 3 | 0.5 to 1 | < 1 | > 3
8 | C#Cc1cc(=O)n(C)c2nc(Nc3ccc(OCCN(C)C)cc3)ncc12 [Example 46, 2-({4-[2-(Dimethylamino)ethoxy]phenyl}amino)-5-ethynyl-8-methylpyrido[2,3-d]pyrimidin-7-one] | < 0.5 | < 0.5 | 1 to 10 | > 3
9 | C#Cc1cc(=O)n(C)c2nc(Nc3ccc(N(C)CCN(C)C)c(-c4cnn(C)c4)c3)ncc12 [Example 47, 2-[(4-{[2-(Dimethylamino)ethyl](methyl)amino}-3-(1-methylpyrazol-4-yl)phenyl)amino]-5-ethynyl-8-methylpyrido[2,3-d]pyrimidin-7-one] | 0.5 to 1 | < 0.5 | < 1 | > 3
10 | C#Cc1cc(=O)n(C)c2nc(Nc3ccc(N4CCN(C)CC4)cc3OC)ncc12 [Example 49, 5-Ethynyl-2-{[2-methoxy-4-(4-methylpiperazin-1-yl)phenyl]amino}-8-methylpyrido[2,3-d]pyrimidin-7-one] | 0.5 to 1 | < 0.5 | < 1 | > 3
11 | C#Cc1cc(=O)n(C)c2nc(Nc3cccc(N(C)CCN(C)C)c3)ncc12 [Example 52, 2-[(3-{[2-(Dimethylamino)ethyl](methyl)amino}phenyl)amino]-5-ethynyl-8-methylpyrido[2,3-d]pyrimidin-7-one] | < 0.5 | < 0.5 | < 1 | > 3

Results, then the compound that gave them:

Row | IC50 [1] [µM] | IC50 [2] [µM] | IC50 [3] [µM] | IC50 [4] [µM] | SMILES
12 | < 0.5 | < 0.5 | < 1 | > 3 | C#Cc1cc(=O)n(-c2ccccc2)c2nc(Nc3ccc(N4CCC(N5CC(F)(CO)C5)CC4)cc3)ncc12 [Example 30, 5-Ethynyl-2-[(4-{4-[3-fluoro-3-(hydroxymethyl)azetidin-1-yl]piperidin-1-yl}phenyl)amino]-8-phenylpyrido[2,3-d]pyrimidin-7-one]
13 | 0.5 to 1 | < 0.5 | < 1 | > 3 | C#Cc1cc(=O)n(-c2ccccc2)c2nc(Nc3ccc(N4CCN(C)CC4)c(CO)c3)ncc12 [Example 31, 5-Ethynyl-2-{[3-(hydroxymethyl)-4-(4-methylpiperazin-1-yl)phenyl]amino}-8-phenylpyrido[2,3-d]pyrimidin-7-one]
14 | < 0.5 | < 0.5 | < 1 | > 3 | C#Cc1cc(=O)n(-c2ccccc2)c2nc(Nc3ccc(N(C)CCN(C)C)c(C)c3)ncc12 [Example 32, 2-[(4-{[2-(Dimethylamino)ethyl](methyl)amino}-3-methylphenyl)amino]-5-ethynyl-8-phenylpyrido[2,3-d]pyrimidin-7-one]
15 | < 0.5 | < 0.5 | < 1 | 1 to 3 | C#Cc1cc(=O)n(-c2ccccc2)c2nc(Nc3ccc(N4CCC(N(C)C)CC4)cc3)ncc12 [Example 33, 2-({4-[4-(Dimethylamino)piperidin-1-yl]phenyl}amino)-5-ethynyl-8-phenylpyrido[2,3-d]pyrimidin-7-one]
16 | 1 to 3 | < 0.5 | < 1 | 1 to 3 | C#Cc1cc(=O)n(-c2ccccc2)c2nc(Nc3ccc(N4CCN(C)CC4)cc3)ncc12 [Example 37, 5-Ethynyl-2-((4-(4-methylpiperazin-1-yl)phenyl)amino)-8-phenylpyrido[2,3-d]pyrimidin-7(8H)-one]
17 | < 0.5 | < 0.5 | < 1 | > 3 | C#Cc1cc(=O)n(-c2ccccc2)c2nc(Nc3ccc(N4CCNC5(CC5)C4)cc3)ncc12 [Example 38, 2-[(4-{4,7-Diazaspiro[2.5]octan-7-yl}phenyl)amino]-5-ethynyl-8-phenylpyrido[2,3-d]pyrimidin-7-one]
18 | < 0.5 | < 0.5 | < 1 | > 3 | C#Cc1cc(=O)n(C)c2nc(Nc3ccc(N4CCN(C)CC4)cc3)ncc12 [Example 45, 5-Ethynyl-8-methyl-2-{[4-(4-methylpiperazin-1-yl)phenyl]amino}pyrido[2,3-d]pyrimidin-7-one]
19 | 0.5 to 1 | < 0.5 | < 1 | > 3 | C#Cc1cc(=O)n(C)c2nc(Nc3ccc(N4CCN(C)CC4)c(NC(C)=O)c3)ncc12 [Example 50, N-[5-({5-Ethynyl-8-methyl-7-oxopyrido[2,3-d]pyrimidin-2-yl}amino)-2-(4-methylpiperazin-1-yl)phenyl]acetamide]
20 | < 0.5 | < 0.5 | < 1 | 1 to 3 | C#Cc1cc(=O)n(C)c2nc(Nc3ccc(N4CCN(C)CC4)c(NC(=O)CC)c3)ncc12 [Example 51, N-[5-({5-Ethynyl-8-methyl-7-oxopyrido[2,3-d]pyrimidin-2-yl}amino)-2-(4-methylpiperazin-1-yl)phenyl]propanamide]
